Results on 44 compounds are retold here after US20140336182A1, “Aurora Kinase Modulators and Method of Use” (Amgen Inc., priority 2013, published 2014).

The first test has as its system HeLa cells. The experiment in a line: HeLa cell 24 hr ploidy assay (DNA content). The class given is cell-based. Particulars: Homo sapiens, HeLa, 4N ploidy, average, read-out: 24h_4NPloidy EC50_IP (uM Avg). In short, it runs like this: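 HeLa cells (1×10^4/well, MEM+10% FBS) cultured 24 h, treated with serially diluted compounds (0.25% DMSO final), then fixed, permeabilized and stained with Hoechst 33342 (0.5 ug/ml). Imaging quantified % 4N and >4N cells; EC50 IP and EC50 transit derived from dose curves.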
Turning to `COc1cnc2c(Oc3ccc(Nc4nnc(-c5ccc(Cl)s5)c5ccccc45)cc3)ccnc2c1` [compound 140, 4-(5-chloro-2-thienyl)-N-(4-((7-(methyloxy)-1,5-naphthyridin-4-yl)oxy)phenyl)-1-phthalazinamine], the EC50 was 0.022 µM.

As to `COc1cnc2c(Oc3ccc(Nc4nnc(-c5ccc6c(c5)OCCN6C)c5ccccc45)cc3)ccnc2c1` [compound 157], the EC50 came to 0.028 µM.

On to `COc1cc2nccc(Nc3ccc(Nc4nnc(-c5ccccc5)c5ccccc45)cc3)c2cn1` [compound 124, N-(7-(methyloxy)-1,6-naphthyridin-4-yl)-N′-(4-phenyl-1-phthalazinyl)-1,4-benzenediamine], for which the EC50 worked out at 0.025 µM.

As to `COc1cnc2c(Oc3ccc(Nc4nnc(-c5ccc(OC)nc5)c5ccccc45)cc3)ccnc2c1` [compound 158], the EC50 is 0.075 µM.

On to `NC(=O)c1cc2nccc(Oc3ccc(Nc4nnc(-c5ccccc5)c5ccccc45)cc3)c2s1` [Example 46, 7-(4-(4-phenylphthalazin-1-ylamino)phenoxy)thieno[3,2-b]pyridine-2-carboxamide], for which the EC50 was 0.171 µM.

For `COc1cc2nccc(Oc3ccc(Nc4nnc(-c5ccc(C)cn5)c5ccccc45)cc3)c2cn1` [compound 103], the EC50 came out at 0.03 µM.

In the case of `COc1cnc2c(Oc3ccc(Nc4nnc(-c5cccc(C#N)c5)c5ccccc45)cc3)ccnc2c1` [Example 29, 3-(4-(4-(7-methoxy-1,5-naphthyridin-4-yloxy)phenylamino)phthalazin-1-yl)benzonitrile], the EC50 is 0.442 µM.

Turning to `Cc1ccc(-c2nnc(Nc3ccc(Oc4ccnc5cc(C#N)ccc45)cc3)c3ccccc23)cc1` [compound 88], the EC50 came out at 0.006 µM.

The same test, now with this note: Homo sapiens, HeLa, HeLa cells, 4N ploidy, average, read-out: 24h_4NPloidy EC50_IP (uM Avg).
As for `Cn1cc(-c2ccc3nccc(Oc4ccc(Nc5nnc(-c6ccccc6)c6ccccc56)cc4)c3c2)cn1` [Example 45, N-(4-(6-(1-Methyl-1H-pyrazol-4-yl)quinolin-4-yloxy)phenyl)-4-phenylphthalazin-1-amine], the EC50 was determined as 0.056 µM.

For the compound `COc1cnc2c(Sc3ccc(Nc4nnc(N5CCCC5)c5ccccc45)cc3)ccnc2c1` [compound 521], the EC50 came to 0.021 µM.

On to `COc1cnc2c(Oc3c(F)cc(Nc4nnc(-c5ccc(Cl)cc5)c5ccccc45)cc3F)ccnc2c1` [compound 454], for which the EC50 was 0.008 µM.

For `COc1ccc2c(Oc3ccc(Nc4nnc(-c5ccccc5)c5ccccc45)cc3)c(F)cnc2c1` [compound 164], the EC50 was 0.076 µM.

In the case of `COc1cnc2c(Sc3ccc(Nc4nnc(N5CCn6ncnc6C5)c5ccccc45)cc3)ccnc2c1` [compound 579], the EC50 was determined as 0.054 µM.

Take `COc1cnc2c(Oc3ccc(Nc4nnc(-c5ccc6c(c5)CCO6)c5ccccc45)cc3)ccnc2c1` [compound 168, 4-(2,3-dihydro-1-benzofuran-5-yl)-N-(4-((7-(methyloxy)-1,5-naphthyridin-4-yl)oxy)phenyl)-1-phthalazinamine]: the EC50 stood at 0.007 µM.

For `COc1cc2nccc(Sc3ccc(Nc4nnc(-c5ccccc5)c5ccccc45)cc3)c2nc1OC` [compound 597], the EC50 is 0.061 µM.

`Cc1ccc(-c2nnc(Nc3ccc(Sc4ccnc5ccoc45)cc3)c3ccccc23)nc1` [compound 482]: the EC50 was 0.036 µM.

For `COc1cc2nccc(Sc3ccc(Nc4nnc(-c5cc(C)cs5)c5ccccc45)cc3)c2cn1` [compound 494], the EC50 was found to be 0.009 µM.

Consider `c1ccc(-c2nnc(Nc3ccc(Sc4ccnc5[nH]cnc45)cc3)c3ccccc23)cc1` [compound 362], for which the EC50 came out at 0.105 µM.

`COc1cnc2c(Oc3ccc(Nc4nnc(-c5ccc(C)nc5)c5ccccc45)cc3)ccnc2c1` [compound 268]: the EC50 was found to be 0.066 µM.

As for `c1ccc(-c2nnc(Nc3ccc(Oc4ccnc5cc(-c6ccsc6)ccc45)cc3)c3ccccc23)cc1` [compound 339], the EC50 turned out to be 0.027 µM.

Take `c1ccc(-c2nnc(Nc3ccc(Sc4ccnc5c4CCCN5)cc3)c3ccccc23)cc1` [compound 577]: the EC50 is 0.025 µM.

As to `COc1cnc2c(Oc3ccc(Nc4nnc(-c5ncco5)c5ccccc45)cc3)ccnc2c1` [compound 200], the EC50 is 0.314 µM.

As for `Cc1cc2nccc(Sc3ccc(Nc4nnc(-c5ccc(C)c(N)c5)c5ccccc45)cc3)c2o1` [compound 492], the EC50 stood at 0.021 µM.

For `COc1cnc2c(Sc3ccc(Nc4nnc(-c5ccc(OC)nc5)c5ccccc45)cc3)ccnc2c1` [compound 583], the EC50 was 0.005 µM.

Consider `Cc1csc(-c2nnc(Nc3ccc(Sc4ccnc5cccnc45)cc3)c3ccccc23)c1` [compound 336], for which the EC50 worked out at 0.001 µM.

Take `COc1cnc2c(Oc3ccc(Nc4nnc(-c5cccc(C(=O)N(C)C)c5)c5ccccc45)cc3)ccnc2c1` [compound 226]: the EC50 is above 1.2 µM.

Regarding `Brc1cnc2c(Oc3ccc(Nc4nnc(-c5ccccc5)c5ccccc45)cc3)ncnc2c1` [compound 599], the EC50 is above 1.2 µM.

Regarding `CCc1cc(-c2cc(C)cs2)nnc1Nc1ccc(Oc2ccnc3cc(OC)cnc23)cc1` [compound 210], the EC50 was determined as 0.056 µM.

In the case of `O=C(c1cc2nccc(Sc3ccc(Nc4nnc(-c5ccccc5)c5ccccc45)cc3)c2s1)N1CCOCC1` [compound 313], the EC50 is 0.076 µM.

Turning to `COc1ccc2c(Sc3ccc(Nc4nnc(-c5ccc(Cl)cc5)c5ccccc45)cc3)ccnc2c1` [compound 334], the EC50 is 0.018 µM.

As to `c1ccc(-c2nnc(Nc3ccc(Oc4ccnc5ccsc45)cc3)c3ccccc23)cc1` [compound 251], the EC50 amounted to 0.227 µM.

As to `COc1cnc2c(Oc3ccc(Nc4nnc(-c5ccc(C#N)cc5)c5ccccc45)cc3)ccnc2c1` [compound 181], the EC50 was determined as 0.104 µM.

Regarding `COc1cc(F)cc2nccc(Oc3ccc(Nc4nnc(-c5ccc(Cl)cc5)c5ccccc45)cc3)c12` [compound 437], the EC50 is 0.005 µM.

With `COc1cc(OC)c2c(Oc3ccc(Nc4nnc(-c5cc(C)cs5)c5ccccc45)cc3)ncnc2c1` [compound 573], the EC50 is 0.011 µM.

Consider `Clc1ccc(-c2nnc(Nc3ccc(Sc4ccnc5[nH]cnc45)cc3)c3ccccc23)cc1` [compound 363], for which the EC50 came to 0.032 µM.

With `c1ccc2c(-c3ccc4c(c3)OCO4)nnc(Nc3ccc(Oc4ccnc5ccsc45)cc3)c2c1` [compound 279], the EC50 is 0.011 µM.

Turning to `N#Cc1ccc2c(Sc3ccc(Nc4nnc(-c5ccccc5)c5ccccc45)cc3)ccnc2c1` [compound 208], the EC50 came out at 0.023 µM.

In the case of `COc1cnc2c(Sc3ccc(Nc4nnc(-c5ccc(C)nc5)c5ccccc45)cc3)ccnc2c1` [compound 588], the EC50 is 0.004 µM.

`c1ccc(-c2nnc(Nc3ccc(Sc4ccnc5cc[nH]c45)cc3)c3ccccc23)cc1` [compound 462]: the EC50 was 0.043 µM.

With `COc1cnc2c(Oc3ccc(Nc4nnc(-c5ccc(C)c(C)c5)c5ccccc45)cc3)ccnc2c1` [compound 192], the EC50 came to 0.005 µM.

Consider `COc1ccc2ncnc(Oc3ccc(Nc4nnc(-c5cc(C)cs5)c5ccccc45)cc3)c2c1` [compound 565], for which the EC50 stood at 0.03 µM.

With `COc1cnc2c(Oc3ccc(Nc4nnc(-c5ccc(C)c(O)c5)c5ccccc45)cc3)ccnc2c1` [compound 449], the EC50 is below 0.0023 µM.

Still in this test, the particulars now being: Homo sapiens, HeLa, HeLa cells, 4N ploidy, given as class symbol, read-out: 24h_4NPloidy EC50_IP (uM Avg).
`c1ccc(-c2nnc(Nc3ccc(Sc4ccnc5ccccc45)cc3)c3ccccc23)cc1` [compound 294]: the EC50 is below 0.1 µM.

Staying with this test, now noted: Homo sapiens, HeLa, HeLa cells, average, read-out: 24h_4NPloidy EC50_IP (uM Avg).
Take `Oc1cnc2c(Oc3ccc(Nc4nnc(-c5ccc(Cl)cc5)c5ccccc45)cc3)ccnc2c1` [Example 409, 8-(4-(4-(4-Chlorophenyl)phthalazin-1-ylamino)phenoxy)-1,5-naphthyridin-3-ol]: the EC50 turned out to be 0.032 µM.
